# According to ChEMBL document CHEMBL1150469, “The conserved acid binding domain model of inhibitors of protein phosphatases 1 and 2A: Molecular modelling aspects” (Bioorg Med Chem Lett, 1993):
# Key:
# Mus musculus [1] = organism: Mus musculus; test: Tested for inhibition of specific [3H]- okadaic acid binding to the cytosolic fraction of mouse skin; type: functional
# Mus musculus [2] = organism: Mus musculus; test: Tested for intra peritoneal dose at which compound dose not show toxicity in mouse; type: functional, organism-based
# Mus musculus [3] = organism: Mus musculus; test: Tested for inhibition of specific [3H]- okadaic acid binding to the cytosolic fraction of mouse liver.; type: functional
# Mus musculus [4] = organism: Mus musculus; test: Tested for inhibition of specific [3H]- okadaic acid binding to the cytosolic fraction of mouse skin.; type: functional
Compound,ED50 (Mus musculus [1]) [nM],DOSE (Mus musculus [2]) [mg/kg],ED50 (Mus musculus [3]) [nM],ED50 (Mus musculus [4]) [nM]
C=C1C(=O)N[C@H](C)C(=O)N[C@@H](CC(C)C)C(=O)N[C@@H](C(=O)O)[C@H](C)C(=O)N[C@@H](CCCNC(=N)N)C(=O)N[C@@H](/C=C/C(C)=C/[C@H](C)[C@H](Cc2ccccc2)OC)[C@H](C)C(=O)N[C@@H](C(=O)O)CCC(=O)N1C (stereo in doubt; form 1),68,,,
C=C1C(=O)N[C@H](C)C(=O)N[C@@H](CC(C)C)C(=O)N[C@@H](C(=O)O)[C@H](C)C(=O)N[C@@H](CCCNC(=N)N)C(=O)N[C@@H](/C=C/C(C)=C/[C@H](C)[C@H](Cc2ccccc2)OC)[C@H](C)C(=O)N[C@@H](C(=O)O)CCC(=O)N1C (stereo in doubt; form 2),8,1,1.3,
COC[C@@H]([C@H](O)[C@H](O)C(=O)NCC[C@H](C)c1nc(/C=C/C[C@@H]2O[C@]3(C[C@@H](O)[C@@H]2C)O[C@H]([C@H](C[C@H](O)[C@H](C)[C@H](O)[C@H](C)/C=C(C)/C(C)=C/C=C/C(C)=C\C#N)OC)[C@H](OP(=O)(O)O)C3(C)C)co1)N(C)C [CALYCULIN A],2.8,,,
C=C1[C@@H](O)[C@@H]2O[C@]3(CC[C@H](/C=C/[C@@H](C)[C@@H]4CC(C)=C[C@@]5(O[C@H](C[C@@](C)(O)C(=O)O)CC[C@H]5O)O4)O3)CC[C@H]2O[C@@H]1[C@@H](O)C[C@H](C)[C@H]1O[C@@]2(CCCCO2)CC[C@H]1C [OKADAIC ACID],,,3.2,2.8
